Where two headings read alike, the source gives them in different places.

The series has as its target T1, PARP (Mus musculus, UniProt P11103).
T1 construct: endogenous in cells; host or cells: L1210 murine leukaemia cells, permeabilised by hypotonic buffer and cold shock
Nature of the series: PARP inhibition assay ([32P]-NAD incorporation into TCA-precipitated poly(ADP-ribose) in permeabilised L1210 cells, oligonucleotide activated). It is filed as biochemical, L1210 murine leukaemia cells. From the text:
In principle, the PARP assay used relies upon activating endogenous PARP (as hereinafter described) in cells containing exogenous [^32 P]-NAD^+ introduced therein by suspending the cells in a solution of [^32 P]-NAD^+ to which they have been rendered permeable in an initial pretreatment step. The poly(ADP-ribose) which is then synthesised by the enzyme can be precipitated by trichloracetic acid (TCA) and the amount of radio-labelled ^32 p incorporated therein measured, e.g. using a scintillation counter, to give a measure of the activity of the PARP under the particular conditions of the experiment. By repeating the experiment following the same procedure, and under the same conditions, in the presence of each compound to be tested the reduction in enzyme activity, representative of the inhibitory effect of the test compound, can then be ascertained from the reduction, if any, of the amount of [^32 P] measured in the TCA precipitated poly(ADP-ribose).
Thus, with a range of different compounds a set of comparative values for inhibitory activity can be obtained.
In practice, L1210 murine leukaemia cells were used as the source of the PARP enzyme after being rendered permeable to exogenous [^32 P]NAD by exposure to hypotonic buffer and cold shock. […] This oligonucleotide sequence snaps back on itself to form a double-stranded molecule with a single blunt end and provides an effective substrate for activation of PARP.
The experimental protocol adopted, in which a synthetic oligonucleotide as mentioned above is introduced as a specific activator of PARP, discriminates between PARP and other mono-ADP-ribosyltransferases in the cells.
The oligonucleotide having the palindromic sequence […], synthesised by conventional means, was vacuum dried and stored as pellets in a freezer. Before use, it was made up to 200 μg/ml in 10 mM Tris/HCl, pH 7.8, with each pellet being dissolved completely in […] of buffer. The solution was then heated to 60° C. in a water bath for 15 minutes, and allowed to cool slowly to ensure correct reannealing. After adding 9.5 ml of buffer, the concentration was checked by measuring the optical density of a diluted sample at 260 nm. The main solution was then diluted to a concentration of 200 μg/ml and stored in 500 μl aliquots in a freezer, ready for use.
The L1210 cells used as the source of the PARP enzyme were maintained as a suspension culture in RPMI medium+10% foetal bovine serum+glutamine and antibiotics (penicillin and streptomycin). HEPES and sodium bicarbonate were also added, and the cells were seeded in 100 ml of medium such that there would be a concentration of approximately 8×10^5 /ml at the time of carrying out an assay.
The solubility of the compound was then checked by adding a quantity of the DMSO solution to a quantity of the isotonic buffer, in the required final proportions that were to be used in carrying out the assay, and after an interval the solution was examined under a microscope for any signs of crystals forming.
A desired quantity of the cells, ascertained by counting with a haemocytometer, was then centrifuged (1500 rpm in a "Europa" model 24M centrifuge for 5 minutes), the supernatant removed, and the pellets obtained were resuspended in 20 ml Dul A at 4° C. before centrifuging again at 1500 rpm and 4° C. After again removing the supernatant, the cells were resuspended at a concentration of 3×10^7 cells/ml in ice cold hypotonic buffer and left for 30 minutes on ice. Nine volumes were then added of ice cold isotonic buffer, and the cells, now rendered permeable to exogenous NAD^+, were then used within the next hour for carrying out an assay.

[1] abbreviates: 10 μM, read-out: % Inhibition (PARP).
Setting [2] is: 100 μM, read-out: % Inhibition (PARP).
Where [3] appears, read: unit printed broken, attached to the next cell.
[4] abbreviates: read-out: % Inhibition (PARP), 10 μM.
The mark [5] stands for this setting: read-out: % Inhibition (PARP), 30 μM.
Where [6] appears, read: 30 μM, read-out: % Inhibition (PARP).

T1 sequence (P11103 whole entry): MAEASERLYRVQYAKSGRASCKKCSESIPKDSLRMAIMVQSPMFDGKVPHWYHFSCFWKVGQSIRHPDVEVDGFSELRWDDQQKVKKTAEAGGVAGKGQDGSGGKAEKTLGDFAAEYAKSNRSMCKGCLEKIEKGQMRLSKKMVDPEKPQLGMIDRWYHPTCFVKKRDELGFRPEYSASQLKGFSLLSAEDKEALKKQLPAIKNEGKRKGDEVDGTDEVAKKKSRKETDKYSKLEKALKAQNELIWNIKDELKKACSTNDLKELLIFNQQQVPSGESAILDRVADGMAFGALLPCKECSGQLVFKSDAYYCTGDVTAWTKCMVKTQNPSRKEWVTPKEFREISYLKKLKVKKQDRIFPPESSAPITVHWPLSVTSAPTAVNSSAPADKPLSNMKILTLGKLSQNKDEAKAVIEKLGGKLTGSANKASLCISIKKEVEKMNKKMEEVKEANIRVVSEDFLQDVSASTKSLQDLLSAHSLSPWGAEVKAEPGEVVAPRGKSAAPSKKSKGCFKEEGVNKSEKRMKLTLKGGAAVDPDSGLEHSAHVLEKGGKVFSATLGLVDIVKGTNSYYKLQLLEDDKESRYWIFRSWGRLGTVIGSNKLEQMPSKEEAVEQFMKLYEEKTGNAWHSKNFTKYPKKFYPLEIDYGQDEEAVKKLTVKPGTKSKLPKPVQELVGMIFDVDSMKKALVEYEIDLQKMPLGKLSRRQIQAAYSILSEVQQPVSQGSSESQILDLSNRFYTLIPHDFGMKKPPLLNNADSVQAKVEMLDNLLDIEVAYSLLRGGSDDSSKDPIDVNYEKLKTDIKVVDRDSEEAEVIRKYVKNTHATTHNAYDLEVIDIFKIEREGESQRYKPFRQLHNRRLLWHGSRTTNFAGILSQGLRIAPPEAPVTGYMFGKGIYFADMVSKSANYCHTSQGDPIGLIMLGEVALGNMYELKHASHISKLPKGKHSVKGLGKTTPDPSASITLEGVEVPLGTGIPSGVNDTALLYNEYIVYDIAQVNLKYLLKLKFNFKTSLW

The term IC50 denotes the concentration that gives 50% inhibition. A higher IC50 goes with a need for much substance. For orientation: inhibition means the share of the control response that was lost under treatment. Consider `NC(=O)c1cccc2oc(-c3ccccc3)nc12` [NU1051, 2-Phenylbenzoxazole-4-carboxamide], for which the midpoint of inhibition, the IC50, lay at 2100 nM and the “PARP inhibitory activity in words” value is “relatively high inhibitory activity even at low concentrations”. Besides, under setting [1], the inhibition at 10 µM amounted to 82%.
Take `NC(=O)c1cccc2c1OCO2` [NU1034, 2,3-methylenedioxy benzamide]: under setting [1], the inhibition at 10 µM was found to be 66%. For the same compound, the inhibition at 100 µM under setting [2] amounted to 94%. The compound also showed an IC50 under setting [3] of 5300 nM.
For `[N-]=[N+]=Nc1ccc(COc2cccc(C(N)=O)c2)cc1` [NU1013, 3-(4-Azidobenzyloxy)benzamide], the inhibition at 10 µM under setting [4] stood at 49%. The inhibition at 30 µM under setting [5] worked out at 28%. Moreover, the inhibition at 100 µM (read-out: % Inhibition (PARP), 100 μM) stood at 43%.
Take `NC(=O)c1cccc(OCCCCCCCCn2cnc3c(N)ncnc32)c1` [NU1022, 3-(8-adenos-9-yloctyloxy)benzamide]: the inhibition at 10 µM under setting [1] stood at 30%.
With `COc1ccc(-c2nc3c(C(N)=O)cccc3o2)cc1` [NU1054, 2-(4-Methoxyphenyl)benzoxazole-4-carboxamide], inhibition was half-maximal at 1100 nM (IC50) and the “PARP inhibitory activity in words” value was “relatively high inhibitory activity even at low concentrations”.
Turning to `Cc1nc2c(C(N)=O)cccc2o1` [NU1056, 2-Methylbenzoxazole-4-carboxamide], the midpoint of inhibition, the IC50, lay at 9500 nM and the “PARP inhibitory activity in words” value is “relatively high inhibitory activity even at low concentrations”.
On to `CC(C)(C)c1nc2c(C(N)=O)cccc2o1` [NU1040, 2-t-butylbenzoxazole-4-carboxamide], for which the “PARP inhibitory activity in words” value is “relatively high inhibitory activity even at low concentrations”. For the same compound, under setting [1], the inhibition at 10 µM stood at 87%. Moreover, the inhibition at 30 µM under setting [6] stood at 88%. In addition, the inhibition at 100 µM under setting [2] came out at 93%. Also, it took 8400 nM to reach half-maximal inhibition under setting [3] (IC50).
Take `C=CCOc1cccc(C(N)=O)c1` [NU1031, 3-Allyloxybenzamide]: the inhibition at 10 µM under setting [1] came to 21%. The inhibition at 30 µM under setting [6] came to 58%. Besides, the inhibition at 100 µM under setting [2] was 80%.
For the compound `NC(=O)c1cccc(OCc2ccccc2)c1` [NU1005, 3-benzyloxybenzamide], the inhibition at 100 µM under setting [2] is 76%. Besides, the inhibition at 10 µM under setting [4] was 34%. Under setting [5], the inhibition at 30 µM worked out at 60%.
Take `NC(=O)c1cccc(OCCc2ccccc2)c1` [NU1048, 3-(Phenethyl)oxybenzamide]: the inhibition at 10 µM under setting [1] was found to be 30%. Also, under setting [6], the inhibition at 30 µM is 50%. Under setting [2], the inhibition at 100 µM was 72%.
Regarding `NC(=O)c1cccc(OCc2ccc(C(F)(F)F)cc2)c1` [NU1036, 3-(4-Trifluoromethylbenzyloxy)benzamide], the inhibition at 10 µM under setting [1] came out at 3%. For the same compound, the inhibition at 30 µM under setting [6] came to 13%. For the same compound, the inhibition at 100 µM under setting [2] worked out at 10%.
Turning to `CCCCOc1cccc(C(N)=O)c1` [NU1038, 3-butoxybenzamide], the inhibition at 10 µM under setting [1] was 23%. In addition, the inhibition at 30 µM under setting [6] was 50%. Besides, the inhibition at 100 µM under setting [2] turned out to be 78%.
Turning to `NC(=O)c1cccc(OCCCCCBr)c1` [NU1019, 3-(5-Bromopentyloxy)benzamide], the inhibition at 30 µM under setting [6] amounted to 54%. Besides, the inhibition at 100 µM under setting [2] came out at 81%.
On to `COc1cccc2c(=O)[nH]c(C)nc12` [NU1063, 8-Methoxy-2-methylquinazolin-4-[3H]-one], for which the IC50 turned out to be 780 nM and the “PARP inhibitory activity in words” value is “potent PARP inhibitors”.
Turning to `Cc1nc2c(C)cccc2c(=O)[nH]1` [NU1069, 2,8-Dimethylquinazolin-4-[3H]-one], inhibition was half-maximal at 200 nM (IC50) and the “PARP inhibitory activity in words” value is recorded as “potent PARP inhibitors”.
Regarding `COc1cccc(C(N)=O)c1` [3-methoxybenzamide, reference compound], the inhibition at 10 µM under setting [1] worked out at 55%. In addition, under setting [6], the inhibition at 30 µM turned out to be 78%. Moreover, the inhibition at 100 µM under setting [2] was 89%.
With `O=c1[nH]c(-c2ccccc2)nc2c(O)cccc12` [NU1068, 8-Hydroxy-2-phenylquinazolin-4-[3H]-one], half-maximal inhibition (IC50) was put at 530 nM and the “PARP inhibitory activity in words” value is listed as “potent PARP inhibitors”.
`NC(=O)c1cccc(O)c1` [3-hydroxybenzamide, reference compound]: the inhibition at 10 µM under setting [1] came to 35%. Moreover, under setting [6], the inhibition at 30 µM worked out at 59%. Under setting [2], the inhibition at 100 µM is 81%.
For `CCCCCOc1cccc(C(N)=O)c1` [NU1039, 3-pentyloxybenzamide], the inhibition at 10 µM under setting [1] worked out at 18%. Further, the inhibition at 30 µM under setting [6] was determined as 45%. For the same compound, under setting [2], the inhibition at 100 µM amounted to 66%.
With `NC(=O)c1cccc(OCCCCCn2cnc3c(N)ncnc32)c1` [NU1024, 3-(5-Adenos-9-ylpentyloxy)benzamide], the inhibition at 10 µM under setting [1] turned out to be 16%. Besides, the inhibition at 30 µM under setting [6] came to 42%. Under setting [2], the inhibition at 100 µM stood at 67%.
For `COc1cccc2c(=O)[nH]c(-c3ccccc3)nc12` [NU1065, 8-Methoxy-2-phenylquinazolin-4-[3H]-one], the IC50 turned out to be 4200 nM.
As for `NC(=O)c1cccc(OCc2ccc(N)cc2)c1` [NU1016, 3-(4-aminobenzyloxy)benzamide], the inhibition at 10 µM under setting [1] stood at 40%. Moreover, the inhibition at 30 µM under setting [6] is 66%. Besides, under setting [2], the inhibition at 100 µM stood at 84%.
In the case of `O=c1[nH]cnc2c(O)cccc12` [NU1026, 8-hydroxyquinazolin-4-[3H]one], the “PARP inhibitory activity in words” value is “quite strong PARP inhibitory activity”. For the same compound, 0.5 µM produced 18% inhibition (0.5 μM). For the same compound, where the note is “1 μM (1.0 μM)”, 1 µM produced 38% inhibition. Where the note is “2.0 μM”, this compound displayed an inhibition at 2 µM of 54%. In addition, under setting [1], the inhibition at 10 µM came out at 78%. Further, under setting [6], the inhibition at 30 µM was determined as 87%. Besides, under setting [2], the inhibition at 100 µM was determined as 95%. Under setting [3], this compound displayed an IC50 of 2000 nM.
Consider `NC(=O)c1cccc(OCCCCCCCCCCCCn2cnc3c(N)ncnc32)c1` [NU1029, 3-(12-adenos-9-yldodecyloxy)benzamide], for which the inhibition at 10 µM under setting [1] came to 26%. Under setting [6], the inhibition at 30 µM was found to be 51%. The inhibition at 100 µM under setting [2] worked out at 74%.
`CC(=O)Nc1ccc(COc2cccc(C(N)=O)c2)cc1` [NU1030, 3-(N-acetyl-4-aminobenzyloxy)benzamide]: under setting [1], the inhibition at 10 µM was 49%. In addition, under setting [6], the inhibition at 30 µM was found to be 70%. Moreover, under setting [2], the inhibition at 100 µM was found to be 84%.
`NC(=O)c1cccc(OCCCCCn2cnc3c(Cl)ncnc32)c1` [NU1023, 3-[5-(6-Chloropurin-9-yl)pentyloxy]benzamide]: under setting [1], the inhibition at 10 µM worked out at 26%. Also, the inhibition at 30 µM under setting [6] was determined as 45%. The inhibition at 100 µM under setting [2] was determined as 71%.
Consider “CGGAATTCCG: small synthetic single strand oligonucleotide having the palindromic sequence CGGAATTCCG (chemistry not given here) [reference compound]”, for which the “activation of PARP in words” value was “potent activator of the enzyme”.
Turning to `NC(=O)c1cccc(OCc2ccc3c(c2)OCO3)c1` [NU1020, 3-(Piperonyloxy)benzamide], the inhibition at 10 µM under setting [1] was 51%. Moreover, the inhibition at 30 µM under setting [6] was 70%. Further, under setting [2], the inhibition at 100 µM was found to be 93%.
